# Test results taken from ChEMBL document CHEMBL1201862, “PubChem BioAssay data set” (2004).
# Activity calls are given as the source filed them.
# Assays:
# [1] = blockers of HIV-1 envelope-mediated cell-cell fusion – cherry-pick, dose response (AID 652057); assay type: functional, cell-based
# [2] = blockers of HIV-1 ZM109 envelope-driven cell-cell fusion – HeLa effector, CEM target cells, luciferase, cherry-pick, dose response (AID 652058); assay type: functional, cell-based;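 further: luciferase signal from HIV-1 Env mediated cell-cell fusion of effector and target cells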
# [3] = viability loss in CEM21 cells – cell-based, CellTiter-Glo luminescence, cherry-picked, cytotoxicity control for viral fusion inhibitor project, dose response (AID 652042); assay type: functional;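 further: potency for signal decrease meaning cytotoxicity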
# [4] = Luminescence Cell-Based Dose Retest to Confirm Inhibitors of Cancer Stem Cells. [Related pubchem assays (depositor defined):AID2717, AID2721]; assay type: functional; conditions: Homo sapiens
# [5] = target: T1, Oxysterols receptor LXR-beta (Homo sapiens, UniProt P55055); assay type: functional, cell-based;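 further: agonist activity at LXR measured by a cell-based luminescence readout across a dose range, run as a counterscreen for daf-12 agonists; HEK293 cells with Gal4-LXR fusion and GAL4-driven luciferase reporter; potency for activation of Gal4-LXR reporter so compounds are agonists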
# T1 sequence (P55055 whole entry): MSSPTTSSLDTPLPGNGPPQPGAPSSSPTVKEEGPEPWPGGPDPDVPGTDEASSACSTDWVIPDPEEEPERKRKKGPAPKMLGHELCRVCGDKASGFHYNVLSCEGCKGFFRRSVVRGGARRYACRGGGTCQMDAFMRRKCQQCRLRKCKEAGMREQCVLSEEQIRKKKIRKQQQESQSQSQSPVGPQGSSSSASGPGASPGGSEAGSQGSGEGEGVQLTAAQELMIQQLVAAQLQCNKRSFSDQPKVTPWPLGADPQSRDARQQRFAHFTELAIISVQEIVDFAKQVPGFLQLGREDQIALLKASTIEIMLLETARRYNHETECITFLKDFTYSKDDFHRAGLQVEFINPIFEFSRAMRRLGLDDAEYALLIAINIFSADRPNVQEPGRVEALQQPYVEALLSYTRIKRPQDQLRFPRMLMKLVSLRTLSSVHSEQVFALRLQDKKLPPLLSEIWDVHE
# [6] = target: G-protein coupled receptor 55 (Homo sapiens, UniProt Q9Y2T6); assay: inhibition of LPI-stimulated GPR55 beta-arrestin translocation – imaging, U2OS, beta-arrestin-GFP, LPI agonist, primary screen (AID 2013); assay type: functional;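 further: antagonist potency measured as reduced agonist-driven arrestin aggregation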
# HEK293 [7] = assay: EBV LMP1 TES2 canonical NF-kB signalling blockers – cell-based, HEK293, luciferase, cherry-pick, dose response (AID 588343); assay type: functional; conditions: Homo sapiens
# [8] = blockers of bursicon-stimulated LGR2 cAMP reporter – cell-based, HEK293, CRE-luciferase reporter, cherry pick, set 2, dose response (AID 743343); assay type: functional;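 further: transfected cells were stimulated with diluted bursicon conditioned medium after compound addition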
# [9] = blockade of melanocortin 4 receptor signaling – cell-based, plate reader, cherry pick, counter-screen for LGR2 antagonist project, dose response (AID 743444); assay type: functional;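 further: transfected HEK 293 cells stimulated with alpha-MSH peptide; potency of inhibitors of the alpha-MSH evoked signal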
# [10] = viability loss of HPDE-C7K cells – cell-based, fluorescence, HTS, primary screen (AID 431); assay type: functional; conditions: Homo sapiens
# cells [11] = assay type: functional, cell-based
# [12] = HPDE-C7 pancreatic duct cell viability loss – fluorescence, HTS (AID 430); assay type: functional, cell-based; conditions: Homo sapiens
# cells [13] = assay type: functional, cell-based; remark: listed apart in the source
# HEK293 [14] = assay: inhibition of NOD1-driven NF-kB reporter – cell-based, luminescence, uHTS, primary screen (AID 1578); assay type: functional; conditions: Homo sapiens
# [15] = test system: Streptococcus sp. 'group A'; assay: Streptococcus pyogenes SK(-)GAS viability under kanamycin – luminescence, BacTiterGlo, confirmation, counter-screen for streptokinase expression inhibitor project, dose response (AID 1900); assay type: functional, organism-based
# Streptokinase A = target: T2, Streptokinase A (Streptococcus pyogenes serotype M1, UniProt P10520); assay: viability-normalized secreted streptokinase activity reduction – plasminogen activation absorbance, OD405, dose response (AID 1914); assay type: functional, Streptococcus pyogenes M1 GAS;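 further: secreted streptokinase activity via plasminogen activation per viability signal from cell pellet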
# T2 sequence (P10520 whole entry): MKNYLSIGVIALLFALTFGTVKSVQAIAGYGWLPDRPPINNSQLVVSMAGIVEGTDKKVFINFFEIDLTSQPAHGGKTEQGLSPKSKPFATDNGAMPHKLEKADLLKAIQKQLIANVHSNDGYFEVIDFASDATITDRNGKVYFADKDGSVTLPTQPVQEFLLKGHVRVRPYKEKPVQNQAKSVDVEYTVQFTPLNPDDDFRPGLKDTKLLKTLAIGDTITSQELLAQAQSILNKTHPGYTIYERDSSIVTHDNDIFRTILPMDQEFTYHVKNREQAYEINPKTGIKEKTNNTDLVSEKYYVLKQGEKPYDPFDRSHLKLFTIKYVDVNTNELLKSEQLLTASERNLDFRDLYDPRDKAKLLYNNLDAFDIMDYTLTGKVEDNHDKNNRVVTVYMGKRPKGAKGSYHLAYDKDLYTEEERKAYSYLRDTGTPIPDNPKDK
# Streptococcus = assay: GAS UMAA2166 growth inhibition – luminescence, BacTiterGlo, counter-screen for streptokinase expression inhibitor project, dose response (AID 1915); assay type: functional, organism-based;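 further: potency for reduction of bacterial viability or growth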
# HEK293 [16] = assay: cells; assay type: functional, cell-based; conditions: Homo sapiens
# HEK293 [17] = assay: NOD2 signaling inhibitors in MDP-stimulated cells, cell-based, uHTS, luminescence (AID 2001); assay type: functional; conditions: Homo sapiens
# HEK293 [18] = assay: cells; assay type: functional, cell-based; conditions: Homo sapiens; remark: listed apart in the source
# [19] = RKO cell viability reduction, dose response, CellTiter-Glo luminescence (AID 1117322); assay type: functional
# [20] = HCT116 cell viability decrease, GSK3B pretreatment – CellTiter-Glo, IC50, dose response (AID 1117339); assay type: functional; conditions: HCT-116
# [21] = SNU-C1 cell viability reduction, dose response, CellTiter-Glo luminescence (AID 1117323); assay type: functional, cell-based
# [22] = CellTiter-Glo luminescence survival assay, SW480 colon tumor line, concentration-response curve, half-maximal inhibitory concentration (AID 1117338); assay type: functional
# [23] = cytotoxicity toward Colo320 cells – cell-based, CellTiter-Glo luminescence, IC50, dose response (AID 1117334); assay type: functional; conditions: COLO 320
# [24] = Reduced DLD-1 viability, concentration-response, CellTiter-Glo luminescence (AID 1117352); assay type: functional
# [25] = cytotoxicity toward HT-29 cells – cell-based, CellTiter-Glo luminescence, IC50, dose response (AID 1117330); assay type: functional
# [26] = cytotoxicity toward HCT116 cells – cell-based, CellTiter-Glo luminescence, IC50, dose response (AID 1117332); assay type: functional; conditions: HCT-116
# G-protein coupled receptor 55, sequence (Q9Y2T6 whole entry): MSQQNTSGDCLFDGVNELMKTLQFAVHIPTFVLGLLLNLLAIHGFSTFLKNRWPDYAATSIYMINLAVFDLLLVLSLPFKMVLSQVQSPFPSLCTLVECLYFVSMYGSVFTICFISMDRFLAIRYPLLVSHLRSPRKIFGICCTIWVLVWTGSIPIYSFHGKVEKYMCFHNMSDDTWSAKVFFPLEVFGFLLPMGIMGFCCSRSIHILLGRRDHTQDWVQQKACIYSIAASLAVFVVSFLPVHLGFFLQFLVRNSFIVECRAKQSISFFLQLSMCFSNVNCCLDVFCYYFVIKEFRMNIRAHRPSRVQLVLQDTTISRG
structure (smiles),measurement,setting,value
CN1CC(c2ccccc2)C2(SC(=S)N(Cc3ccco3)C2=O)C12C(=O)Nc1ccccc12 (stereo not given),AC50,[1],17.6 µM (active)
same,AC50,[2],18.4 µM (active)
same,AC50,[3],20.3 µM (active)
same,AC50,[4],4.4 µM (active)
CCc1ccc(C2CC(c3ccco3)=NN2S(C)(=O)=O)cc1 (stereo not given),EC50,[5],> 67.5 µM (inactive)
CCCSc1ncc(Cl)c(C(=O)Nc2ccc(S(=O)(=O)N3CC(C)OC(C)C3)cc2)n1 (stereo not given),IC50,[6],5.75 µM (active)
O=C(CN1C(=O)c2ccccc2S1(=O)=O)c1ccccc1F,AC50,HEK293 [7],3.69 µM (active)
same,AC50,[8],2.28 µM (active)
same,AC50,[9],4.05 µM (active)
Cc1sc2ncnc(Sc3nnnn3-c3ccc(Cl)cc3)c2c1C,EC50,[10],5.19 µM (active)
same,EC50,cells [11],> 350 µM (not active)
same,EC50,[12],4.61 µM (active)
same,EC50,cells [13],> 350 µM (not active)
Cc1conc1NC(c1cccs1)c1ccc2cccnc2c1O (stereo not given),EC50,HEK293 [14],> 20 µM (inactive)
same,EC50,[10],5.68 µM (active)
same,EC50,[15],1.93 µM (active)
same,EC50,Streptokinase A,> 150 µM (not active)
same,EC50,Streptococcus,7.33 µM (active)
same,IC50,HEK293 [16],4.74 µM (active)
same,EC50,[12],10.2 µM (active)
same,IC50,HEK293 [17],6.1 µM (active)
same,IC50,HEK293 [18],> 20 µM (inactive)
C=CC(C)(O)CCC=C(C)CCC=C(C)C (stereo not given),IC50,[19],> 20 µM (inactive)
same,IC50,[20],> 20 µM (inactive)
same,IC50,[21],> 20 µM (inactive)
same,IC50,[22],> 20 µM (inactive)
same,IC50,[23],10.3 µM (inactive)
same,IC50,[24],> 20 µM (inactive)
same,IC50,[25],> 20 µM (inactive)
same,IC50,[26],> 20 µM (inactive)
